Source: US6689773B2, “Uracil substituted phenyl sulfamoyl carboxamides” (BASF Aktiengesellschaft, priority 2000, dated 2004)

Assays:
potato plants = assay: Field trials of preharvest desiccant activity (Example 151); assay type: in vivo, Potatoes; details: EC formulation 120 grams a.i./liter applied to foliage a few weeks before harvest
Protocol: Field evaluations of preharvest desiccant activity were performed at several different locations using compound Ia.86. In each experiment treatments was replicated three times in a randomized complete block experimental design. Potatoes were grown using good agronomic practices of each area. Treatments were applied a few weeks before planned potato harvest. The test compound was formulated as an emulsifiable concentrate (EC) formulation with 120 grams a.i./liter. The formulation was diluted with water, spray adjuvants were added, and the treatment solution was applied to the foliage of potatoes in from 187 to 600 l/ha of total spray volume. Unless indicated otherwise, the treatments also contained […] of methylated seed oil adjuvant (Hasten or SUN-IT II. In the case of split applications, the second application was made about 1 week after the initial application. At various intervals after treatment, desiccation of stems and leaves was evaluated separately, on a visual % desiccation scale. In each test the test compound was compared to appropriate commercial standards at the normal rate for each standard for the area.

[1] = test system: Polygonum persicaria (POLPE), redshank; ladysthumb; assay: Greenhouse post-emergence herbicidal action (Example 149); assay type: in vivo; details: 15.6 or 7.8 g/ha of a.i.
Protocol: (§1) The culture containers used were plastic flowerpots containing loamy sand with approximately 3.0% of humus as substrate. The seeds of the test plants were sown separately for each species.
(§2) For the post-emergence treatment, the test plants were grown to a plant height of from 3 to 15 cm, depending on the plant habit, and only then treated with the active ingredients which had been suspended or emulsified in water. To this end, the test plants were either sown directly and grown in the same containers, or they were first grown separately as seedlings and transplanted into the test containers a few days prior to treatment. The rate of application for the post-emergence treatment was 15.6 or 7.8 g/ha active ingredient.
(§3) Depending on the species, the plants were kept at from 10-25° C. and 20-35° C., respectively. The test period extended over 2 to 4 weeks. During this time, the plants were tended, and their response to the individual treatments was evaluated.
(§4) Evaluation was carried out using a scale of from 0 to 100. 100 means no emergence of the plants, or complete destruction of at least the aerial parts, and 0 means no damage or normal course of growth.
(§5) The plants used in the greenhouse experiments belonged to the following species: […]

[2] = test system: Pharbitis purpurea (PHBPU), common or tall morningglory; assay: as above; assay type: in vivo; details: 15.6 or 7.8 g/ha of a.i.
Protocol: as §1, §2, §3, §4, §5

[3] = test system: Amaranthus retroflexus (AMARE), Redroot pigweed; assay: as above; assay type: in vivo; details: 15.6 or 7.8 g/ha of a.i.
Protocol: as §1, §2, §3, §4, §5

SMILES	desiccation of the leaves and stems of potato plants (potato plants)	herbicidal action [1]	herbicidal action [2]	herbicidal action [3]
CC(C)N(C)S(=O)(=O)NC(=O)c1cc(-n2c(=O)cc(C(F)(F)F)n(C)c2=O)c(F)cc1Cl [Ia.86]	very effective			
CC(C)N(C)S(=O)(=O)NC(=O)c1cc(-c2nn(C)c(OC(F)F)c2Cl)c(F)cc1Cl [Ip.86, 4-Chloro-3-[4-chloro-2-fluoro-5-(N-methyl-N-isopropyl)-sulfamoylcarboxamidophenyl]-5-difluoromethoxy-1-methyl-1H-pyrazole]		very good herbicial action	very good herbicial action	very good herbicial action
CC(C)N(C)S(=O)(=O)NC(=O)c1cc(-c2ncc(C(F)(F)F)cc2Cl)c(F)cc1Cl [Iy.86, N′-[[2-Chloro-5-[3-chloro-5-(trifluoromethyl)-2-pyridinyl]-4-fluorobenzoyl]]-N-isopropyl-N-methylsulfamide]		very good herbicial action	very good herbicial action	very good herbicial action
